Source: patent EP4782453A1 (Beyang Therapeutics Co., Ltd., priority 2023, dated 2025)

Legend:
MEIS1 gene expression = experiment: Inhibition of MEIS1 gene expression in human tumor cells (qRT-PCR), MOLM-13; format: cell-based; details: MOLM-13 (carrying MLL-AF9), 48 hours of incubation, relative MEIS1 gene expression vs GAPDH
Description: Experimental Example 3: Evaluation of Inhibitory Activity of Compounds Against MEISI Gene Expression in Human Tumor Cells
The effect of test samples on MEIS1 gene expression in vitro cultured human leukemia cells MV-4-11 (carrying MLL-AF4), MOLM-13 (carrying MLL-AF9), and OCI-AML3 (carrying NPM1c) was studied.
• Human acute lymphoblastic leukemia cells MV-4-11, purchased from American Type Culture Collection, Catalog Number: CRL-9591; • Human acute myeloid leukemia cells MOLM-13, purchased from COBIOER BIOSCIENCES CO., LTD, Catalog Number: CBP60678; • Human acute myeloid leukemia cells OCI-AML3, purchased from COBIOER BIOSCIENCES CO., LTD, Catalog Number: CBP60817; • MEIS1 Primer/Probe, purchased from IDT, Catalog Number: 40831613; and • GAPDH Primer/Probe, purchased from IDT, Catalog Number: 22214836.
MV-4-11 cells were cultured in an IMDM medium containing 10% fetal bovine serum, or MOLM-13 and OCI-AML3 cells were cultured in an RPMI-1640 medium containing 20% fetal bovine serum, each supplemented with 100 U·mL^-1 penicillin and 100 µg·mL^-1 streptomycin. These cells were cultured at 37°C with 5% CO2. The suspensions of individual cell lines were prepared in their respective media and seeded into 48-well plates at a density of 100,000 cells/well. On the day of the experiment, a compound stock solution was diluted in a 6-fold gradient using DMSO. Each gradient-diluted stock solution was then further diluted 250-fold with a complete medium to prepare a series of working solutions at different concentrations. Next, 250 µL of working solution (containing the complete medium with a 2-fold serial concentration of the test compound or a positive control compound, or containing a control complete medium) was added to each well. After 48 hours of incubation, cells from the 48-well plate were collected into 1 mL centrifuge tubes, centrifuged at 1000 rpm for 5 minutes, and the complete medium was removed. Cells were washed twice with 1 mL PBS and centrifuged to remove PBS. Total RNA was extracted using the RNeasy Mini Kit (250) (QIAGEN, 74106). The threshold cycle (Ct) value for gene expression was determined using the HiScript II U+ One Step qRT-PCR Probe Kit (Vazyme) (Vazyme, Q223-01), with 3 replicates per sample. The prepared reaction mixture was placed in an ABI 7500 real-time PCR instrument, and the reaction proceeded following the procedures below. [formula]
Next, for the relative MEIS1 gene expression, the concentration (EC50) that inhibits 50% of relative MEIS1 gene expression was calculated using GraphPad Prism 8 software.

[1] = tested on: MV-4-11 (carrying MLL-AF4); experiment: Inhibition of proliferation of human tumor cells (Alamar Blue, 7 days), MV-4-11; format: cell-based; details: Homo sapiens, MV4-11, 168 h, MV-4-11 cells (carrying MLL-AF4), method calls the value GI50
Summary of the method: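 Cells seeded at 4,000/well (MV-4-11, MOLM-13) or 3,000/well (KG-1a) in serum-supplemented IMDM or RPMI-1640, 37°C, 5% CO2, then exposed to 3- or 4-fold compound dilutions in duplicate for 7 days. Alamar Blue fluorescence read; GI50 derived against Day 7 0.1% DMSO (high) and Day 0 (low) controls.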

EC50 (MEIS1 gene expression)	IC50 [1]	SMILES
9.1 nM	5 nM	Cc1nc(F)c2c(-c3ccc(F)cc3C(=O)N3CCOC[C@H]3C)cc(C3CN([C@H](CN4CCN(C)CC4)C(C)C)C3)cn12 [Example 368-2, (3R)-4-[5-fluoro-2-(1-fluoro-3-methyl-6-{1-[(2S)-3-methyl-1-(4-methylpiperazin-1-yl)butan-2-yl]azacyclobutan-3-yl}imidazo[1,5-a]pyridin-8-yl)benzoyl]-3-methylmorpholine]
2 nM	0.4 nM	CCN(C(=O)c1cc(F)ccc1-c1cc(C2CN([C@H](CCCN3C[C@H]4C[C@@H]3CO4)C(C)C)C2)cn2c(C)ncc12)C(C)C [Example 379, N-ethyl-5-fluoro-2-(3-methyl-6-{1-[(3R)-2-methyl-6-[(1R,4R)-2-oxa-5-azabicyclo[2.2.1]heptan-5-yl]hexan-3-yl]azacyclobutan-3-yl}imidazo[1,5-a]pyridin-8-yl)-N-(isopropyl)benzamide]
2.6 nM	1.1 nM	CCN(C(=O)c1cc(F)ccc1-c1cc(C2CN([C@H](CCCN3CCN(CCO)CC3)C(C)C)C2)cn2c(C)ncc12)C(C)C [Example 398, N-ethyl-5-fluoro-2-(6-{1-[(3R)-6-[4-(2-hydroxyethyl)piperazin-1-yl]-2-methylhexan-3-yl]azacyclobutan-3-yl}-3-methylimidazo[1,5-a]pyridin-8-yl)-N-(isopropyl)benzamide]
4.6 nM	4.7 nM	CCN(C(=O)c1cc(F)ccc1-c1cc(C2CN([C@H](CN3CCN(CCO)CC3)C(C)C)C2)cn2c(C)ncc12)C(C)C [Example 431, N-ethyl-5-fluoro-2-(6-{1-[(2S)-1-[4-(2-hydroxylethyl)piperazin-1-yl]-3-methylbutan-2-yl]azacyclobutan-3-yl}-3methylimidazo[1,5-a]pyridin-8-yl)-N-(isopropyl)benzamide]

The remaining lines, values behind:

SMILES	EC50 (MEIS1 gene expression)	IC50 [1]
Cc1ncc2c(-c3ccc(F)cc3C(=O)N3CCOC[C@H]3C)cc(C3CN([C@H](CCCN4CCN(C)CC4)C(C)C)C3)cn12 [Example 323-2, (3R)-4-[5-fluoro-2-(3-methyl-6-{1-[(3R)-2-methyl-6-(4-methylpiperazin-1-yl)hexan-3-yl]azacyclobutan-3-yl}imidazo[1,5-a]pyridin-8-yl)benzoyl]-3-methylmorpholine]	8.4 nM	2.4 nM
CCN1CCN(CCC[C@H](C(C)C)N2CC(c3cc(-c4ccc(F)cc4C(=O)N4CCOC[C@H]4C)c4cnc(C)n4c3)C2)CC1 [Example 324-2]	1.3 nM	1.3 nM
Cc1nc(F)c2c(-c3ccc(F)cc3C(=O)N3CCOC[C@H]3C)cc(C3CN([C@H](CCCN4C[C@H]5C[C@@H]4CO5)C(C)C)C3)cn12 [Example 353, (1R,4R)-5-[(4R)-4-[3-(1-fluoro-8-{4-fluoro-2-[(3R)-3-methylmorpholin-4-carbonyl]phenyl}-3-methylimidazo[1,5-a]pyridin-6-yl)azacyclobutan-1-yl]-5-methylhexyl]-2-oxa-5-azabicyclo[2.2.1]heptane]	2.4 nM	4.1 nM
CCN(C(=O)c1cc(F)ccc1-c1cc(C2CN([C@H](CCCN3C4COCC3C4)C(C)C)C2)cn2c(C)ncc12)C(C)C [Example 423]	2.3 nM	1.2 nM
